pIC50: −log10 of the molar value. Like-named read-outs stand apart in the source and are kept apart here.
What was measured:
D2 = D2 (Homo sapiens, UniProt P14416); details: read-out: Ki (nM) D2; Table 2; cited from earlier work
a1 = details: Table 2; cited from earlier work
5-HT1A = target: T1, 5-HT1A (Homo sapiens, UniProt P08908)
T1 sequence (P08908 1-422): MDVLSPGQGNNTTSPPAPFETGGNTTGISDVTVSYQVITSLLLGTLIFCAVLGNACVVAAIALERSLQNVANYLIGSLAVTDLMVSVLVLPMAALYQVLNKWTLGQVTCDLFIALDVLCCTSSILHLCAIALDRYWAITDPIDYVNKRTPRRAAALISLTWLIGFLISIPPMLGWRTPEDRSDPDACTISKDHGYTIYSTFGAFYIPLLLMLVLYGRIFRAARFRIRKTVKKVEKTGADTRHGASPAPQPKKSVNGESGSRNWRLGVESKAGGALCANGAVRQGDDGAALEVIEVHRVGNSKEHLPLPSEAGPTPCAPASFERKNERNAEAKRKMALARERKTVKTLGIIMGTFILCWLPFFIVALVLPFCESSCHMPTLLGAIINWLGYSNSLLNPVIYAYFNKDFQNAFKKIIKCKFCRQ

recognition memory [1] = experiment: Novel Object Recognition Model (Example 1); format: in vivo, rats; details: for effect on the cognitive enhancing properties of Aricept in the Novel Object Recognition Model: co-administered with Aricept, lowers dose of both agents required for efficacy
Protocol: (§1) Novel Object Recognition Model: Male Long-Evans hooded rats (˜200 g at the time of testing) were individually housed with ad libitum access to food and water. Novel object recognition (NOR) training and testing was performed in a circular field (diameter ˜70 cm, 30 cm high) constructed out of plastic and containing soiled bedding (without feces). The field was surrounded by black curtains to mask extra-field cues and was located in a dimly lit room (˜10 lux at the level of the area) in the presence of white noise (˜65 dB). Animal performance was tracked by video and monitored by an experimenter located outside of the testing room. Objects, constructed with Duplo® blocks (Lego), could be affixed to the floor in one of four locations spaced evenly around the field approximately 10 cm from the field's edge. To avoid possible olfactory cues, multiple copies of the objects were used throughout the study and were cleaned with a 30% ethanol solution between animals.
The visual recognition task was divided into 3 sessions—habituation, a sample trial and a choice trial. During habituation the animals were placed into the field containing 2 identical yellow cubes (˜10 cm×10 cm×10 cm) and were allowed to explore the field for ten minutes. Following habituation, rats were returned to their home cage. One day after habituation, animals were dosed with drug (either a 5-HT1A antagonist compound, a cognitive enhancer or both a 5-HT1A antagonist compound and a cognitive enhancer) and following the pretreatment interval the sample trial was initiated. […] The amount of time investigating the objects was recorded for the entire trial. […]
(§2) The effect of treatment on object exploration during trial one was examined using a one-way ANOVA on total contact time followed by Fisher's LSD group mean pair-wise comparisons. The amount of time exploring the novel and familiar objects across treatment groups was analyzed using a repeated measures ANOVA followed by Fisher's LSD post-hoc comparisons. […]

recognition memory [2] = experiment: Novel Object Recognition, Compound 405 with Aricept (Example 2); format: in vivo, mice; details: compared between vehicle, Aricept 0.5 mg/kg, Compound 405 0.3 mg/kg and combination groups
Protocol: as §1, with “Objects, constructed with Duplo® blocks (Lego), could be affixed to the floor in one of four locations spaced evenly around the field approximately 10 cm from the field's edge. To avoid possible olfactory cues, multiple copies of the objects were used throughout the study and were cleaned with a 30% ethanol solution between animals.” left out
The visual recognition task was divided into 3 sessions—habituation, a sample trial and a choice trial. […] The amount of time investigating the objects was recorded for the entire trial. […]
as §2
Cognitive enhancement was measured using the Novel Object Recognition procedure described in Example 1. […]

5-HT2A = 5-HT2A (Homo sapiens, UniProt P28223); details: read-out: Ki (nM) 5-HT2A; Table 1; cited from earlier work
*1^A = details: Table 4; cited from earlier work
[3] = read-out: Ki (nM) 5-HT1A; Table 2; cited from earlier work
[4] = Table 3; read-out: IC50 (nM) 5-HT1A; cited from earlier work
[5] = Table 2; read-out: Ki (nM) 5-HT1A; cited from earlier work
[6] = read-out: Ki (nM) 5-HT1A; Table 4; cited from earlier work

Sequence of D2 (P14416 whole entry): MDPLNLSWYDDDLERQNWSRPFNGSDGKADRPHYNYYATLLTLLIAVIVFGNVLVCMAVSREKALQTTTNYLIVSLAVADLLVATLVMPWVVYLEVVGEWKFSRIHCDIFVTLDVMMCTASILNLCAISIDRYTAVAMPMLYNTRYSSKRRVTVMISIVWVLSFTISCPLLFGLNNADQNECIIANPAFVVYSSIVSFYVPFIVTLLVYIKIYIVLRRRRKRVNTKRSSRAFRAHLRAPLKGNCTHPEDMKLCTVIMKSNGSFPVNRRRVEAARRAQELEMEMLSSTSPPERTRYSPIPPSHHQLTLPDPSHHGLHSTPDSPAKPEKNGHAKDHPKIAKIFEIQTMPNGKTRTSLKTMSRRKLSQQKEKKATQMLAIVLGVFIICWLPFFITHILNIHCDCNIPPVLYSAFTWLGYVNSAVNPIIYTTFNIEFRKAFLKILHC
Sequence of 5-HT2A (P28223 whole entry): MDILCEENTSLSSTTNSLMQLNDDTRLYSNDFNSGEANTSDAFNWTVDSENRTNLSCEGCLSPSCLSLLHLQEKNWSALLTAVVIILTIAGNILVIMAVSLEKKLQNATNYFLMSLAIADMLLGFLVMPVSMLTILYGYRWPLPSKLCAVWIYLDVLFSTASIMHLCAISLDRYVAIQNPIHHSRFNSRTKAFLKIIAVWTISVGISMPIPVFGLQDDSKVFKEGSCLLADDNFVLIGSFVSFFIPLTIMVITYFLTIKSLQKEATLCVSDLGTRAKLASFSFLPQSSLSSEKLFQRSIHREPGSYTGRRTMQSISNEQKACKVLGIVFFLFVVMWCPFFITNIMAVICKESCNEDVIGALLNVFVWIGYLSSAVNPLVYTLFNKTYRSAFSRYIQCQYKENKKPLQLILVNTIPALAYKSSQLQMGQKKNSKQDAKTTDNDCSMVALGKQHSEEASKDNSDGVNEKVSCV

COc1ccccc1N1CCN(CC(C(=O)NC(C)(C)C)c2ccccc2)CC1 (racemic) [Compound Y (R)]
Ki (D2): 4 nM | Ki (a1): 1240 nM | Ki (5-HT1A; [3]): 104 nM

COc1ccccc1N1CCN(CC(C(=O)NC(C)(C)C)c2ccccc2)CC1 (racemic) [Compound Y (S)]
Ki (D2): 20 nM | Ki (a1): 1440 nM | Ki (5-HT1A; [3]): 22 nM

COc1ccccc1N1CCN(CC(C(=O)NC(C)(C)C)c2ccccc2)CC1 (racemic) [Compound Y (±)]
Ki (D2): 14 nM | Ki (a1): 718 nM | Ki (5-HT1A; [3]): 20 nM

COc1cc(N2CCN(C3CCN(c4ccc(F)c5c(OC)cc(C(F)(F)F)nc45)CC3)CC2)c2ncccc2c1 [5-fluoro-4-methoxy-8-(4-(4-(6-methoxyquinolin-8-yl)piperazin-1-yl)piperidin-1-yl)-2-(trifluoromethyl)quinoline]
effect on the cognitive enhancing properties of Aricept in the Novel Object Recognition Model (recognition memory [1]): synergistic effect

COc1cc(N2CCN(C3CCN(c4ccc(F)c5cccnc45)CC3)CC2)c2ncccc2c1 [5-fluoro-8-(4-(4-(6-methoxyquinolin-8-yl)piperazin-1-yl)piperidin-1-yl)quinoline]
effect on the cognitive enhancing properties of Aricept in the Novel Object Recognition Model (recognition memory [1]): synergistic effect

COc1cc2c(cc1OC)C(=O)C(CC1CCN(Cc3ccccc3)CC1)C2 (stereo not shown) [Aricept®, donepezil]
contact times familiar vs novel, administered separately (recognition memory [1]; sub-threshold doses: Aricept 0.5 mg/kg i.p. or 5-HT1A antagonist 0.1 mg/kg p.o., 48 hour inter-trial interval): not statistically different | exploration time (FIG. 1) (recognition memory [2]): relatively similar

O=c1ccc(=O)n(-c2ccccc2)n1CCCCN1CCN(c2cccc(Cl)c2)CC1 [Compound 104]
Ki (5-HT2A): 1830 nM

COc1ccccc1N1CCN(CCCn2c(=O)ccc(=O)n2-c2ccccc2)CC1 [Compound 105]
Ki (5-HT2A): 2120 nM

COc1ccccc1N1CCN(CCCCn2c(=O)ccc(=O)n2-c2ccccc2)CC1 [Compound 106]
Ki (5-HT2A): 1450 nM | Ki (5-HT1A; read-out: Ki (nM) 5-HT1A; Table 1; cited from earlier work): 51 nM

OC1(c2ccc3c(c2)OCO3)CCC(N2CCN(Cc3ccccc3)CC2)CC1 (stereo not shown) [Compound 112]
IC50 (5-HT1A; [4]): 20 nM

COc1ccc(C2(O)CCC(N3CCN(Cc4ccccc4)CC3)CC2)cc1 (stereo not shown) [Compound 113]
IC50 (5-HT1A; [4]): 50 nM

COc1cccc(CN2CCN(C3CCC(O)(c4ccc5c(c4)OCO5)CC3)CC2)c1 (stereo not shown) [Compound 114]
IC50 (5-HT1A; [4]): 2.2 nM

COc1ccccc1N1CCN(CC(C(=O)NC2CCCCC2)c2ccccc2)CC1 (stereo not shown) [Compound 118]
Ki (a1): 1870 nM | Ki (5-HT1A; [3]): 10 nM

O=C(C1CCCCC1)N(CN1CCN(c2ccccc2O)CC1)c1ccccn1 [Compound 119]
pIC50 (5-HT1A; Table 2, starred value; read-out: 5-HT1A, data expressed as IC50 value (*); cited from earlier work): 8.68

CS(=O)(=O)Oc1ccccc1N1CCN(CN(C(=O)C2CCCCC2)c2ccccn2)CC1 [Compound 122]
Ki (5-HT1A; [5]): 7.25 nM

O=C(C1CCCCC1)N(CN1CCN(c2ccccc2OS(=O)(=O)C(F)(F)F)CC1)c1ccccn1 [Compound 123]
Ki (5-HT1A; [5]): 36 nM

COc1ccccc1N1CCN(CCN(C(=O)c2ccc(I)cc2)c2ccccn2)CC1 [Compound 124]
Ki (D2): 19 nM | Ki (a1): 35 nM | Ki (5-HT1A; [3]): 2.6 nM

COc1ccccc1N1CCN(CCN(C(=O)c2cccc(I)c2)c2ccccn2)CC1 [Compound 125]
Ki (5-HT1A; [5]): 1.7 nM

COc1ccccc1N1CCN(CCN(C(=O)c2ccc(F)cc2)c2ccccn2)CC1 [Compound 127]
Ki (5-HT1A; [5]): 3.3 nM

COc1ccccc1N1CCN(CCCSc2nc3sc4c(c3c(=O)n2N)CCC4)CC1 [Compound 129]
Ki (*1^A): 7.39 nM | Ki (5-HT1A; [6]): 9.26 nM

COc1ccccc1N1CCN(CCCSc2nc(N)c3c(C)c(C)sc3n2)CC1 [Compound 135]
Ki (*1^A): 10.8 nM | Ki (5-HT1A; [6]): 2.45 nM

CCOc1ccccc1-c1nnc(SCCCN2CCN(c3ccccc3[N+](=O)[O-])CC2)s1 [Compound 137]
Ki (*1^A): 437 nM | Ki (5-HT1A; [6]): 135 nM

C[C@H](CN(C(=O)C1CCCCC1)c1ccccn1)N1CCN(c2cccc3[nH]ccc23)CC1 [Compound 405, (R)-N-(2-methyl-(4-indolyl-1-piperazinyl)ethyl)-N-(2-pyridinyl)cyclohexane carboxamide]
exploration time (FIG. 1) (recognition memory [2]): relatively similar

COc1ccccc1N1CCN(CN(C(=O)C2CCCCC2)c2ccccn2)CC1 [Compound X]
Ki (D2): 79 nM | Ki (a1): 45 nM | Ki (5-HT1A; [3]): 0.24 nM

From US20080032965A1, “Method for enhancing cognitive function” (priority 2006, published 2008)
